Where “and” joins values, the source holds several entries; their conditions need not be identical. Identical values can stand only once.

Common to all, as to type: ADME, organism-based
One series has as its system Homo sapiens. Put plainly: (§1) Pharmacokinetic parameters for Lidocaine, and Prilocaine after topical administration of EMLA cream intact skin on the lateral thighs, vaginal fornices and penile skin of subjects. Further details: dose 1.5 g, route topical. The settings on record: in vivo, topical_or_ocular; for C / Tmax: route topical.
The nature of series [1]: as §1. As to conditions: human, in vivo, topical or ocular, 1.5 g; dosed compound id 50, dosed compound name PRILOCAINE, regimen Single dose, study dosing duration 3 hours, tissue Plasma. More on the design: dose 1.5 g, route topical.
Series [2] is described as follows: Evaluation of pharmacokinetic parameters for Lidocaine, and Prilocaine following intravenous (IV) administration of Lidocaine or application of a cream. The settings on record: human, dosed compound id 50, dosed compound name PRILOCAINE, tissue Plasma.
The mark [3] stands for this setting: dose 0.5 to 3.3 g, dosed compound id 50, dosed compound name PRILOCAINE, gender female, regimen Single dose, study dosing duration 10 to 60 minutes, tissue Plasma.

Consider `CCN(CC)CC(=O)Nc1c(C)cccc1C` [LIDOCAINE], for which the Cmax in the series with Homo sapiens is 120 ng/mL and 280 ng/mL.

For `CCCNC(C)C(=O)Nc1ccccc1C` (configuration not stated) [PRILOCAINE], the Cmax stood at 70 ng/mL in series [1] and 140 ng/mL with Homo sapiens (dosed compound id 50, dosed compound name PRILOCAINE, regimen Single dose, study dosing duration 24 hours, tissue Plasma). The C with Homo sapiens (setting [3]) is 40 to 346 ng/mL; in the series on Homo sapiens (dose 0.5 to 3.3 g, dosed compound id 50, dosed compound name PRILOCAINE, gender male, regimen Single dose, study dosing duration 15 minutes, tissue Plasma), 2.5 to 7 ng/mL. The time of peak concentration (Tmax) with Homo sapiens (setting [3]) is 0.35 to 1.58 h; in the series on Homo sapiens (dose 1.5 g, dosed compound id 50, dosed compound name PRILOCAINE, regimen Single dose, study dosing duration 3 hours, tissue Plasma) it was 4 h; in the series on Homo sapiens (dose 1.5 g, dosed compound id 50, dosed compound name PRILOCAINE, regimen Single dose, study dosing duration 24 hours, tissue Plasma), 10 h. In series [2] (in vivo, route iv), this compound yielded a clearance of 38 mL/min/kg. Moreover, in series [2] (in vivo, route iv), the half-life was found to be 1.17 h. Further, the Vd in series [2] (in vivo, route iv, read-out: Vss) was determined as 2.6 L/kg. Besides, in series [2] (topical or ocular, route topical, read-out: Protein binding (converted)), the fraction unbound was 0.45.

The Cmax is the maximum level reached in the sampled fluid or tissue. One may read the Tmax as the time at which the peak concentration occurs. A word on the clearance: it is the volume of plasma or blood freed of the substance per unit of time. Read a high clearance as efficient removal. The term half-life denotes the time needed for the level to fall by half in the phase considered. High values mean slow loss, low ones fast loss.

The values are drawn from ChEMBL document CHEMBL3832034.
